# Test results taken from paper PMC6273065, “Synthesis, Molecular Modelling and Biological Evaluation of Novel Heterodimeric, Multiple Ligands Targeting Cholinesterases and Amyloid Beta” (Molecules, 2016).
# Read-outs that look alike come from different tables or passages of the source. Marks after values point to notes of the source that are not given here.
# Assays:
# [1] = target: T1, EeAChE (Electrophorus electricus, UniProt O42275); details: cited from earlier work
# T1 construct: purchased Sigma–Aldrich
# T1 sequence (O42275 24-633): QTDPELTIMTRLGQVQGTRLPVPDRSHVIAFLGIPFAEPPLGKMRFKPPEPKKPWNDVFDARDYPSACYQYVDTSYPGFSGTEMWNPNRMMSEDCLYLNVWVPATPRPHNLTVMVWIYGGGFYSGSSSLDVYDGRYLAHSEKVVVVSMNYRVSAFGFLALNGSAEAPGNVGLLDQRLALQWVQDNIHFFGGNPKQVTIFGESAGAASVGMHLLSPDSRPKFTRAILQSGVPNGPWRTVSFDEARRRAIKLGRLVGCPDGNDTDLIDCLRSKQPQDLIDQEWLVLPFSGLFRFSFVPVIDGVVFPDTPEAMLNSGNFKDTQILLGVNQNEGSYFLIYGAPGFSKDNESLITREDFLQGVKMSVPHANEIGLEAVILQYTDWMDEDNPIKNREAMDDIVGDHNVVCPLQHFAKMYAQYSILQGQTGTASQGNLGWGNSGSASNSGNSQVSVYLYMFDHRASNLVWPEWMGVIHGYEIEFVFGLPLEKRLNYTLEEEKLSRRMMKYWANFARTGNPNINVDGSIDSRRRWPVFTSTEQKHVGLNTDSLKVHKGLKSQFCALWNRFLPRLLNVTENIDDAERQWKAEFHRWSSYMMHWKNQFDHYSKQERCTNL
# [2] = target: T2, EqBuChE (Equus caballus, UniProt P81908); details: % inhibition at 50 μM lower than 50%; cited from earlier work
# T2 construct: BuChE from equine serum (EqBuChE, Sigma–Aldrich); purchased Sigma–Aldrich; host or cells: equine serum
# T2 sequence (P81908 whole entry): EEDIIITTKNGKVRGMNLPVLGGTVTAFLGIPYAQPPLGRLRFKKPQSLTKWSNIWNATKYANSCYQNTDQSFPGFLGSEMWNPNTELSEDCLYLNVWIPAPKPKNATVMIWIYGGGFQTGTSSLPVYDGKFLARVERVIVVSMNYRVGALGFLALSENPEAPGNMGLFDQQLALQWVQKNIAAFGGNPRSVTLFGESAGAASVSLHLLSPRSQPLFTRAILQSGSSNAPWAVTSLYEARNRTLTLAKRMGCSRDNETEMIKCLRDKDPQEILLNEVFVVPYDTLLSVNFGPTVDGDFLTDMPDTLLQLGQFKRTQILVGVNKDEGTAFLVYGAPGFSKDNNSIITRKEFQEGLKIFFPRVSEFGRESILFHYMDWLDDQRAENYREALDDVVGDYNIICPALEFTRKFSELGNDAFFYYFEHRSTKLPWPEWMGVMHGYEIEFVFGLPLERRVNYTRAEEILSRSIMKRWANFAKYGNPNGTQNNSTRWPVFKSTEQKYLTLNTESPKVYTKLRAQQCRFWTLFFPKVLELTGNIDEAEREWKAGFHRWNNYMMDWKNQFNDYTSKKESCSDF
# [3] = target: T3, Aβ1–42 (Homo sapiens, UniProt P05067); design: method as in PMID 26032855; details: 10 µM compound, self-induced; mean ± SD; cited from earlier work
# T3 construct: Recombinant human HFIP-pretreated Aβ1–42 peptide; purchased Merck Millipore Lot number 2387442
# T3 sequence (P05067 672-713): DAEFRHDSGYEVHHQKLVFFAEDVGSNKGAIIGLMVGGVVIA
# [4] = system: Aβ12–23; details: 50 µM compound, self-induced Aβ12–23 aggregation; mean ± SD; cited from earlier work
# [5] = target: T1, EeAChE; assay: biochemical; assay type: biochemical
# Experimental: (§1) Ellman’s method was used to determine the activity of the synthesized compounds against AChE from electric eel (Electrophorus electricus, EeAChE) and BuChE from equine serum (EqBuChE).
# (§2) All assays were performed in 0.1 M phosphate buffer pH 8.0. The tested compounds or water in a blank sample (25 µL) were incubated with the enzyme (20 µL) for 5 min at 25 °C in buffer (765 µL) prior to starting the reaction. Then, DTNB (20 µL) and ATC (20 µL) were added. […] Each condition was measured in triplicate. The percentages of enzyme inhibition were calculated from the equation 100%—Ai/A0 × 100%, where Ai is the absorbance of a sample with an inhibitor and A0 is the absorbance of a blank sample (100% activity of the enzyme). The IC50 values were calculated using GraphPad Prism 5. Data is expressed as mean ± SEM.
# [6] = target: T2, EqBuChE; assay: biochemical
# Experimental: as §1, §2
# [7] = target: T1, EeAChE; assay: Kinetic characterization of EeAChE inhibition (Lineweaver–Burk, Cornish–Bowden plots); assay type: biochemical; details: Lineweaver–Burk and Cornish–Bowden plots, ATC 0.067–0.5 mM
# Experimental: Both types of inhibition were further confirmed by Cornish–Bowden plots (S/V vs. [I]) (A. in Supplementary Materials).
# To estimate the type of inhibition of EeAChE, the same experimental protocol as reported above (4.3.1) was performed. Different concentrations of the substrate ATC (0.067–0.5 mM) were used to create Lineweaver-Burk plots by plotting the inverse initial velocity (1/V) as a function of the inverse of the substrate concentration (1/[S]). The stock solution of ATC (0.5 mM in a well) was prepared in water and diluted before use to obtained 0.4, 0.3, 0.2, 0.1and 0.067 mM concentrations of substrate. The double reciprocal plots were assessed by a weighted least square analysis that assumed the variance of V to be a constant percentage of V for the entire data set. Each experiment was performed in triplicate. Then, to confirm the mode of inhibition, Cornish-Bowden plots were obtained by plotting S/V (substrate concentration/velocity ratio) versus the inhibitor concentration [I]. Data analysis was performed with GraphPad Prism 5.
# [8] = target: T3, Aβ1–42; assay: Thioflavin-T fluorometric assay of self-induced Aβ1–42 aggregation; assay type: biochemical; details: 10 µM compound, 1.5 µM Aβ1–42; mean ± SD; <10 = defined as not active; read-out: Aβ1–42 Aggreg. % of inhibition
# Text: Mechanisms of Aβ aggregation remain unclear. Besides the self-induced assembly of Aβ, several other factors affect its aggregation, including metal ions, AChE [45], and oxidative stress. Therefore, we evaluated our compounds using the most versatile and commonly used Aβ1–42 aggregation Thioflavin T assay. Seven structurally diverse compounds were selected (one from each subseries) to test their ability to inhibit self-induced Aβ1–42 aggregation.
# Thioflavin-T (ThT) fluorometric assay was performed to investigate the effect of the test compounds on the self-aggregation of Aβ1–42. […] Each sample was prepared in quadruplicate, and the DMSO was always at 3%. To quantify amyloid fibril formation, the ThT fluorescence was measured through the bottom of the plate every 180 s at an excitation wavelength of 440 nm and emission wavelength of 490 nm, with the medium continuously shaking between measurements using a 96-well microplate reader (Synergy™ H4, BioTek Instruments, Inc., Winooski, VT, USA). […] The fluorescence intensities at the plateau in the absence and presence of the test compounds were averaged, and the average fluorescence of the corresponding wells at t = 0 h was subtracted.
# [9] = PAMPA-BBB; for Log Pe: 2 h at 37 °C, means of two replicates; for Prediction of BBB penetration: class from log Pe
# Experimental: For anti-Alzheimer drug candidates, the ability to cross the blood–brain barrier and to enter the central nervous system (CNS) is crucial to achieve their pharmacological target and activity.
# The BBB-PAMPA Explorer Test System was purchased from pION Inc. The in vitro permeability through BBB-1 lipid membrane was determined for 7 commercial drugs and the tested compounds. The compounds were dissolved in DMSO (10 mM stock solution) and diluted with Prisma HT buffer (5 µL/1 mL). Then, the […] 96-well microplate was filled with solution of the tested compounds in buffer (200 µL/well). The filter membrane in acceptor 96-well microplate was impregnated with BBB-1 lipid solution (5 µL/well) and the acceptor plate was filled with Brain Sink Buffer (200 µL/well). The acceptor plate was carefully placed on the donor plate to form a sandwich that was left undisturbed for 2 h at 37 °C. After incubation, the donor plate was carefully removed. The concentration of compounds in the acceptor, the donor, and the reference wells were measured using EnSpire Multimode Microplate Reader (PerkinElmer).
SMILES,IC50 [1],IC50 [2],Aβ1–42 Aggreg. % of inhibition [3],Aβ12–23 aggregation % of inhibition [4],IC50 [5],IC50 [6],type of EeAChE inhibition [7],inhibition at 10 µM [8],Log Pe [9],Prediction of BBB penetration [9]
O=C1c2ccccc2S(=O)(=O)N1CCCCCNCc1ccccc1 [Compd. II],36 ± 1 nM,> 50000 nM,22.19 ± 16.6%,,,,,,,
CCN(CC)CCCCCCCCN1C(=O)c2ccccc2C1=O [Compd. I],,,,30.10 ± 5.78 ^f %,,,,,,
"O=C1c2ccccc2C(=O)N1CCCCCCCN1CCCC1 [Compound 3, 2-(7-(Pyrrolidin-1-yl)heptyl)isoindoline-1,3-dione]",,,,,276 ± 3 nM,> 50000 nM,mixed type of enzyme inhibition,,,
"O=C1c2ccccc2C(=O)N1CCCCCCCCN1CCCC1 [Compound 4, 2-(8-(Pyrrolidin-1-yl)octyl)isoindoline-1,3-dione]",,,,,282 ± 11 nM,3240 ± 141 nM,mixed type of enzyme inhibition,15.2 ± 3.06%,–4.0,"CNS+ (CNS+, log Pe > −4.5, high permeability (i.e., can enter the CNS))"
"O=C1c2ccccc2C(=O)N1CCCCCCN1CCc2ccccc2C1 [Compound 11, 2-(6-(3,4-dihydroisoquinolin-2(1H)-yl)hexyl)isoindoline-1,3-dione]",,,,,387 ± 3 nM,5120 ± 90 nM,mixed type of enzyme inhibition,,,
"O=C1c2ccccc2S(=O)(=O)N1CCCCCNCc1cccc(Cl)c1 [Compound 42, 2-(5-(3-chlorobenzylamino)pentyl)benzo[d]isothiazol-3(2H)-one 1,1-dioxide]",,,,,70 ± 1 nM,> 50000 nM,linear non-competitive type of inhibition,16.5 ± 3.01%,–4.3,"CNS+ (CNS+, log Pe > −4.5, high permeability (i.e., can enter the CNS))"
